Assay results as given in article PMC3422259, “Additive Mixture Effects of Estrogenic Chemicals in Human Cell-Based Assays Can Be Influenced by Inclusion of Chemicals with Differing Effect Profiles” (PLoS ONE, 2012).
“Also recorded” adds a separate entry of the source. Read-outs that look alike come from different tables or passages of the source.

What was measured:
[1] = test system: MCF-7 cells; assay: Estrogenicity assay, mitogenic endpoint (ESCREEN); conditions: for Signs of estrogenicity (in words): chemical screened as potential modulator, tested alone
Description: The ESCREEN assay was performed using cloned MCF-7 cells (described in [6], gifted from A. Soto, Boston) and the established ESCREEN method was followed using an adapted 96-well format. Cells were cultured in DMEM (5% FCS). For experiments, cells were seeded in clear polystyrene 96 well plates at a density of 2,500 cells/well and allowed to attach for 24 hours before washing with rinse media (phenol red-free DMEM, no supplements). […] Test chemicals were dissolved in ethanol to give stock solutions of millimolar concentrations. Test and control solutions were diluted prior to application in dosing media (phenol red free DMEM, 10% charcoal-dextran stripped FCS). The final concentration of ethanol was 0.5% in test and control wells. […] At all stages, media removal from cells was carried out gently and in a controlled fashion by use of an electronic multichannel pipette set to the lowest speed possible. Controls were run as eight replicate wells per plate and compounds were tested in a dilution series comprising eight concentrations, each concentration tested in two replicate wells per plate. The plate layout was designed to reduce variation due to evaporation and spreading of test chemicals, and had been previously optimised in the laboratory. After application of test solutions, plates were incubated for 120 hours before fixation with 10% trichloroacetic acid and sulforhodamine B (SRB) staining to measure protein and allow the indirect quantification of cell number.
Experiments were performed on different days meaning that results for different dilution series and different batches of the test chemicals were obtained on different days. Each single chemical was tested in three or more independent experiments. Use of normalisation meant that data from different experiments could be reliably combined and compared, as discussed previously. Data was expressed relative to the positive control, rather than as fold change from the vehicle response, for two reasons.
Results from regression analysis for each test chemicals were used to predict the CA effect for fixed-ratio mixtures designed on 1) equi-effective concentrations (balanced design), 2) possible human serum levels (non-balanced design). The original mathematical formulation of CA that defines for a mixture composed of n components with concentration c1 of the first component, c2 of the second component, and cn for the n-th component a combination effect X is [drawing 1] (1) Here, ECX1, ECX1 …, ECXn are the concentrations of the individual components that on their own produce the same effect X as the mixture, [15] The quotients cn/ECXn are called toxic units and scale all compounds in the mixture relative to their toxicity. They can be interpreted as the contribution of the compound to the total mixture concentration that is expected to produce the mixture effect X. According to equation 1, a mixture effect for a pre-defined effect level X is described only implicitly. However, if the individual concentrations ci are expressed as relative fractions pi to the total mixture concentration ECxMix, then equation 1 can be re-arranged to [drawing 2] (2) which allows the direct calculation of the mixture concentration that is expected to produce the mixture effect X. To form a prediction curve, equation 2 is iterated through for various effect levels resulting in sets of effects and their associated predicted mixture concentration which are then plotted to produce a graph of the effect prediction.
Both equations 1 and 2 require knowledge of the concentration of each mixture component that on its own produces the effect magnitude under consideration. For this reason, these equations cannot be used for predicting mixture effects that exceed the maximal effect of the least efficacious component, because those effect concentrations cannot be defined.

[2] = test system: MCF-7 cells; assay: Modulation studies (ESCREEN only): effect of potential modulators on the response evoked by a reference mixture of estrogens (REFmix); assay type: cell-based, human; conditions: for Modulation of the REFmix effect (in words) / Concentration at which suppression of the ESCREEN response to REFmix began: ESCREEN; for Observed modulation: ESCREEN response to REFmix (Mixture 3d, ca. 50% effect), screening, one experiment; for Concentration at which suppression of the ESCREEN response to REFmix began: individual modulator screening
Description: Modulation studies comprised screening of individual modulators in low power experiments accompanied by parallel testing of an equimolar mixture of all modulators. This combination of low power screening and mixture testing provides the opportunity to assess a high number of chemicals (16 in this case) without a prohibitive amount of experimental effort. In this case the effects of 16 modulators could be evaluated using a total of 19 experimental plates (16 for screening and 3 for mixture testing).
To normalize for small changes in the absolute value of the positive control and the control response to the selected REFmix concentration, the response evoked by the REFmix control on each plate was defined as the 50% effect and all modulator study results are normalized to that value.
A mixture of modulators (MODmix) was also tested and was composed with a fixed ratio of equimolar concentrations, since the activity of each modulator was not known at the time of designing the mixture.
In these modulator studies, we examined 16 single chemicals (listed in Table 7) and an equimolar mixture of all 16 components for their ability to modulate the effects of a reference mixture (REFmix) which contained 14 food additives and contaminants (Table 1, Mixture 3d). […] Single chemicals were tested individually in single experiments (screening) and then a mixture composed using a fixed ratio of equal molarities was subjected to repeated testing.
Figure 5 Results of modulation studies. […] Experimental results are shown as grey circles representing each replicate (duplicate testing within the assay) and obtained in three independent (A) or one (B–Q) experiment (s). Experimental results were normalized by setting the value observed for the REFmix alone, the concentration of which was selected to evoke a […] of ca. 50%, to 0.5. The positive control values (black circles, eight replicates per experimental plate, 25 nM estradiol) are indicated adjacent to the y-axis. […] A black line indicates a LOESS spline fit to the data (A–Q) and a grey line indicates linear regression fit to the data for individual modulators (B–Q). A vertical dotted line is drawn at a mixture concentration of 1.6 µM (A) or at the concentration of each modulator present at that mixture concentration (0.1 uM, B–Q). Visual inspection of the individual modulator results (B–Q) was used to identify possible modulation, i.e. when the experimental data appears to deviate from the linear regression, or when the linear regression is not horizontal, and when the magnitude of the modulation is outside the variation expected in the assay.

Row | Compound | Signs of toxicity (in words) ([1]; ESCREEN) | Signs of estrogenicity (in words) ([1]; ESCREEN) | Modulation of the REFmix effect (in words) [2] | Observed modulation [2] | Concentration at which suppression of the ESCREEN response to REFmix began [2] | Suppression of the REFmix effect ([2]; at 10 µM) | Signs of estrogenicity: Active at concentration ([1]; ESCREEN, ‘Active’ = positive signal clearly distinguishable from assay variability and noise) | Suppression of the ESCREEN response to REFmix ([2]; at 100 nM, plateau at that level up to 10 µM) | Signs of toxicity (in words) [1]
1 | COc1ccc(O)c(C(C)(C)C)c1 [BHA, Butylated hydroxyl anisole] | None | None | possible negative modulation | Possible negative | – | – | – | – | –
2 | Cc1cc(C(C)(C)C)c(O)c(C(C)(C)C)c1 [BHT, Butylated hydroxytoluene] | None | None | possible negative modulation | Possible negative | – | – | – | – | –
3 | [Cl][Cd][Cl] [CdCl2, Cadmium chloride] | – | None | clear negative modulation; also recorded: showed negative modulation | Clear negative | around 10 nM | 80% | – | – | –
4 | Cc1cnc2ccc3c(nc(N)n3C)c2n1 [MeIQx, 2-Amino-3,8-dimethyl imidazo [4,5-f] quinoxaline] | None | None | no indication of negative modulation | None | – | – | – | – | –
5 | Clc1ccc(-c2ccccc2Cl)cc1 [PCB #8, 2,4′-dichlorobiphenyl (PCB #8)] | None | None | no indication of negative modulation | None | – | – | – | – | –
6 | Clc1ccc(-c2cc(Cl)c(Cl)c(Cl)c2)cc1Cl [PCB #126, 3,3′,4,4′,5-pentachlorobiphenyl (PCB #126)] | None | – | clear negative modulation | Clear negative | 1–10 nM and around 10 nM | – | Active at 10 µM or higher | 50% | –
7 | Clc1cc(Cl)c(-c2cc(Cl)c(Cl)cc2Cl)cc1Cl [PCB #153, 2,2′,4,4′,5,5′-hexachloro biphenyl (PCB #153)] | None | None | no indication of negative modulation | None | – | – | – | – | –
8 | Clc1cc(Cl)c(-c2cc(Cl)c(Cl)c(Cl)c2Cl)cc1Cl [PCB #180, 2,2′,3,4,4′,5,5′-heptachloro biphenyl (PCB #180)] | – | None | no indication of negative modulation | None | – | – | – | – | None
9 | O=[N+]([O-])[O-].O=[N+]([O-])[O-].[Pb+2] [Pb(NO3)2, Lead nitrate] | None | None | possible negative modulation | Possible negative | – | – | – | – | –
10 | Cn1c(N)nc2ncc(-c3ccccc3)cc21 [PhIP, 2-amino-1-methyl-6-phenylimidazo [4,5-b] pyridine] | None | None | possible negative modulation | Possible negative | – | – | – | – | –
